Test results: patent publication US20150374680A1, “POCHOXIME CONJUGATES USEFUL FOR THE TREATMENT OF HSP90 RELATED PATHOLOGIES” (UNIVERSITE DE STRASBOURG, priority 2010, published 2015)
Each block holds one compound with its values, some of them ahead of it.

Experiments:
[1] = tested on: HER2+BT474 breast carcinoma cells; assay: Proliferation assay in BT474 (ATPlite); assay type: cell-based; settings: Homo sapiens, BT-474, 72 hours, average of three independent experiments
Procedure: (§1) The compounds were dissolved in 100% DMSO to make 10 mM stock solutions. HER2+BT474 breast carcinoma cells were cultured in DMEM/F12 media, supplemented with 10% FBS. Log-phase growing BT474 cells were seeded in 96 well plates at 1.5×10E4 per well. At this cell density, BT474 is expected to reach confluency about 70-80% in 3 days. Different dilutions of compounds or vehicle in 200 μl (concentration range 0.004-10 μM) were added to the cells and incubated for 72 hours. Upon completion of the incubation, media were gently removed by suction and 100 μl of ATPlite solution (Perkin Elmer) was added in each well. Viable cells were measured by detecting luminescence generated from reaction of ATPlite solution and ATP in the cells using a 96-well microplate luminescence reader. Relative luminescence light unit is correlated to the amount of ATP in viable cells. The assays were performed in duplicates. IC50 was calculated using XLfit. The IC50 shown in Table 4 below is the average IC50 from three independent experiments.

A498 = assay: Proliferation assay in A498; assay type: cell-based; settings: Homo sapiens, A498, Renal (VHL mut)
Procedure: as §1
(§2) Additional proliferation assays were performed for certain exemplified compounds using the methods similar to the one described above in multiple cancer cell lines.

HCT116 = assay: Proliferation assay in HCT116; assay type: cell-based; settings: Homo sapiens, HCT-116, HCT116, Colon
Procedure: as §1, §2

RPM18226 = assay: Proliferation assay in RPM18226; assay type: cell-based; settings: RPM18226, Multiple myeloma
Procedure: as §1, §2

N87 = assay: Proliferation assay in N87; assay type: cell-based; settings: N87, Gastric (Her2+)
Procedure: as §1, §2

HCC1569 = assay: Proliferation assay in HCC1569; assay type: cell-based; settings: Homo sapiens, HCC1569, Breast (Her2+; Her2i res)
Procedure: as §1, §2

HCC827 = assay: Proliferation assay in HCC827; assay type: cell-based; settings: Homo sapiens, HCC827, Lung (EGFR mut)
Procedure: as §1, §2

HT29 = assay: Proliferation assay in HT29; assay type: cell-based; settings: Homo sapiens, HT-29, HT29, Colon
Procedure: as §1, §2

H1975 = assay: Proliferation assay in H1975; assay type: cell-based; settings: Homo sapiens, NCI-H1975, H1975, Lung (EGFR mut)
Procedure: as §1, §2

PC3 = assay: Proliferation assay in PC3; assay type: cell-based; settings: Homo sapiens, PC-3, PC3, Prostate
Procedure: as §1, §2

NCI-H2228 = assay: Proliferation assay in NCI-H2228; assay type: cell-based; settings: Homo sapiens, NCI-H2228, Lung (EML4-ALK+)
Procedure: as §1, §2

H23 = assay: Proliferation assay in H23; assay type: cell-based; settings: Homo sapiens, NCI-H23, H23, Lung
Procedure: as §1, §2

A549 = assay: Proliferation assay in A549; assay type: cell-based; settings: Homo sapiens, A549, Lung
Procedure: as §1, §2

SKOV-3 = assay: Proliferation assay in SKOV-3; assay type: cell-based; settings: Homo sapiens, SK-OV-3, SKOV-3, Ovarian (Her2+)
Procedure: as §1, §2

H460 = assay: Proliferation assay in H460; assay type: cell-based; settings: Homo sapiens, NCI-H460, H460, Lung
Procedure: as §1, §2

[2] = tested on: HSP90 client protein in SKBR3 cell lines; settings: earlier work of the inventors; cited from earlier work
BT474 breast tumor cells = settings: xenografts bearing BT474 breast tumor cells; earlier work of the inventors; cited from earlier work

Compound: C[C@@H]1C/C=C/[C@H](N)C/C=C/C(=NOCC(=O)N2CCCCC2)Cc2cc(O)cc(O)c2C(=O)O1 [Compound 13]
IC50 [1]: 0.097 µM

IC50 [1]: > 10 µM
Compound: C[C@@H]1C/C=C/[C@@H](NC(=O)CS[C@@H]2OC(CO)[C@@H](O)C(O)C2O)C/C=C/C(=N\OCC(=O)N2CCCCC2)Cc2cc(O)cc(O)c2C(=O)O1 (stereo partly drawn) [Compound 5Z]

IC50 (HCT116): 101 nM | IC50 (HCC1569): 175 nM | IC50 (HCC827): 105 nM | IC50 (HT29): 92 nM | IC50 (H1975): 51 nM | IC50 (PC3): 82 nM | IC50 (NCI-H2228): 139 nM
Compound: C[C@@H]1C/C=C/[C@@H](N)C/C=C/C(=N\OCC(=O)N2CCCCC2)Cc2cc(O)cc(O)c2C(=O)O1 [As-13(6S)-Z]
IC50 (A498): 166 nM | IC50 (RPM18226): 72 nM | IC50 (N87): 12 nM

IC50 [1]: 0.27 µM
Compound: CC(=O)N[C@H]1/C=C/C[C@@H](C)OC(=O)c2c(O)cc(O)cc2CC(=N/OCC(=O)N2CCCCC2)/C=C/C1 [Compound 14Z]

IC50 (A549): 126 nM | IC50 (HCC1569): 187 nM | IC50 (H1975): 33 nM | IC50 [1]: 0.027 µM | IC50 (SKOV-3): 45 nM | IC50 (NCI-H2228): 281 nM
Compound: C[C@@H]1C/C=C/[C@@H](O)C/C=C/C(=N/OCC(=O)N2CCCCC2)Cc2c(Cl)c(O)cc(O)c2C(=O)O1 [As-10b(6-S)-E]
IC50 (A498): 37 nM | IC50 (H23): 36 nM | IC50 (N87): 13 nM

IC50 (A549): 22 nM | IC50 (HCC1569): 100 nM | IC50 (H460): 15 nM | IC50 (H1975): 35 nM | IC50 [1]: 0.026 µM | IC50 (SKOV-3): 25 nM | IC50 (NCI-H2228): 77 nM
Compound: C[C@@H]1C/C=C/[C@@H](O)C/C=C/C(=N\OCC(=O)N2CCCCC2)Cc2cc(O)cc(O)c2C(=O)O1 [As-10a(6-S)-Z]
IC50 (A498): 24 nM | IC50 (H23): 28 nM | IC50 (N87): 11 nM

IC50 [1]: 7.84 µM
Compound: C[C@@H]1C/C=C/[C@@H](NC(=O)CS[C@@H]2OC(CO)[C@@H](O)C(O)C2O)C/C=C/C(=N/OCC(=O)N2CCCCC2)Cc2cc(O)cc(O)c2C(=O)O1 (stereo partly drawn) [Compound 5E]

IC50 [1]: 0.038 µM
Compound: C[C@@H]1C/C=C/[C@@H](N)C/C=C/C(=N\OCC(=O)N2CCCCC2)Cc2cc(O)cc(O)c2C(=O)O1 [Compound 12Z]

Compound: pochoxime C
Concentration inducing client protein degradation [2]: low nM

Compound: O=C1OCC/C=C/CC/C=C/C(=N/OCC(=O)N2CCCCC2)Cc2c(Cl)c(O)cc(O)c21 [pochoxime A]
Effect on tumor in xenografts (BT474 breast tumor cells): tumor regression | Concentration inducing client protein degradation [2]: low nM

IC50 (A549): 90 nM | IC50 (HCC1569): 377 nM | IC50 (H460): 45 nM | IC50 (H1975): 73 nM | IC50 [1]: 0.058 µM | IC50 (SKOV-3): 67 nM | IC50 (NCI-H2228): 241 nM
Compound: C[C@@H]1C/C=C/[C@@H](O)C/C=C/C(=N/OCC(=O)N2CCCCC2)Cc2cc(O)cc(O)c2C(=O)O1 [As-10a(6-S)-E]
IC50 (A498): 99 nM | IC50 (H23): 88 nM | IC50 (N87): 73 nM

Compound: pochoxime B
Concentration inducing client protein degradation [2]: low nM

IC50 [1]: 0.824 µM
Compound: C[C@@H]1C/C=C/[C@@H](O)C/C=C/C(=N\OCC(=O)N2CCCCC2)Cc2c(Cl)c(O)cc(O)c2C(=O)O1 [As-10b(6-S)-Z]

IC50 (HCT116): 76 nM | IC50 (HCC1569): 140 nM | IC50 (HCC827): 79 nM | IC50 (H460): 33 nM | IC50 (HT29): 33 nM | IC50 (H1975): 37 nM | IC50 (PC3): 44 nM | IC50 (SKOV-3): 33 nM | IC50 (NCI-H2228): 87 nM
Compound: C[C@@H]1C/C=C/[C@@H](N)C/C=C/C(=N/OCC(=O)N2CCCCC2)Cc2cc(O)cc(O)c2C(=O)O1 [As-13(6S)-E]
IC50 (A498): 180 nM | IC50 (RPM18226): 46 nM | IC50 (H23): 41 nM | IC50 (N87): 7 nM

IC50 [1]: 4.76 µM
Compound: C[C@@H]1C/C=C/[C@H](NC(=O)CS[C@@H]2OC(CO)[C@@H](O)C(O)C2O)C/C=C/C(=N/OCC(=O)N2CCCCC2)Cc2cc(O)cc(O)c2C(=O)O1 (stereo partly drawn) [Compound 11E]

IC50 [1]: 0.223 µM
Compound: CC(=O)N[C@H]1/C=C/C[C@@H](C)OC(=O)c2c(O)cc(O)cc2CC(=N\OCC(=O)N2CCCCC2)/C=C/C1 [Compound 14E]

IC50 [1]: 0.03 µM
Compound: C[C@@H]1C/C=C/[C@@H](N)C/C=C/C(=N/OCC(=O)N2CCCCC2)Cc2cc(O)cc(O)c2C(=O)O1 [Compound 12E]

IC50 [1]: > 10 µM
Compound: C[C@@H]1C/C=C/[C@H](NC(=O)CS[C@@H]2OC(CO)[C@@H](O)C(O)C2O)C/C=C/C(=N\OCC(=O)N2CCCCC2)Cc2cc(O)cc(O)c2C(=O)O1 (stereo partly drawn) [Compound 11Z]
